Patent publication US20060062832A1, “Sanitizing wipes with microbicidal properties cross-reference to related applications” (priority 2004, published 2006)

Tests used:
Assay type in all cases: cell-based
[1] = tested on: Escherichia coli ATCC 11229; experiment: A.O.A.C. sanitizer and germicidal detergent test; conditions: compositions at listed % w/v; hypochlorite 50 ppm; sanitizer criterion 99.999% in 30 s
Excerpt: (§1) The bacterial cultures were purchased from the American Type Culture Collection (ATCC), (Bethesda, Md.). Escherichia coli and Staphylococcus aureus are used to represent both gram negative and gram-positive bacterial classes. This test is used by the US EPA for to determine compliance for a product to be used as a sanitizing agent. A product that reduces population density of both types of bacteria in 30 s by 99.999% satisfies the requirement as a sanitizing agent.

[2] = tested on: Staphylococcus aureus ATCC 6538; experiment: A.O.A.C. sanitizer and germicidal detergent test; conditions: compositions at listed % w/v; hypochlorite 50 ppm; sanitizer criterion 99.999% in 30 s
Excerpt: as §1

[3] = tested on: Aeromonas hydrophila ATCC 7965; experiment: modified detergent and germicidal sanitizer test of the A.O.A.C.; conditions: A.h. 7965
Method: (§2) The […], Listeria monocytogenes, Aeromonas hydrophila, and Pseudomonas aeruginosa essentially by the modified detergent and germicidal sanitizer test of the A.O.A.C. The sanitizers were tested against both natural isolates and the antibiotic resistant strains of Listeria monocytogenes and Salmonella typhimurium. Each of the antibiotic resistant strains was used separately as well as in a composite strain prepared by mixing equal numbers of five different antibiotic resistant strains of Listeria monocytogenes or those of Salmonella typhimurium, respectively.

[4] = tested on: Listeria monocytogenes ATCC 7644; experiment: as above; conditions: L.m. 7644
Method: as §2

[5] = tested on: Pseudomonas aeruginosa ATCC 10145; experiment: as above; conditions: P.a. 10145
Method: (§3) The efficacy of the sanitizers of Examples I-III were further evaluated with 50 ppm of hypochlorite as a control against Salmonella typhimurium, Listeria monocytogenes, Aeromonas hydrophila, and Pseudomonas aeruginosa essentially by the modified detergent and germicidal sanitizer test of the A.O.A.C. The sanitizers were tested against both natural isolates and the antibiotic resistant strains of Listeria monocytogenes and Salmonella typhimurium. Each of the antibiotic resistant strains was used separately as well as in a composite strain prepared by mixing equal numbers of five different antibiotic resistant strains of Listeria monocytogenes or those of Salmonella typhimurium, respectively.

[6] = tested on: Salmonella typhimurium ATCC 7823; experiment: as above; parameters: key to Number of surviving bacteria/ml after 30 seconds: Too Numerous To Count; conditions: S.t. 7823
Method: as §3

[7] = 30 seconds contact, HOCL = 200 ppm (mark on the cfu cell beside)

OCl [Hypochlorite]
>99.999%: % Kill E. coli [1] | % Kill Staph. aureus [2] | % Kill after 30 seconds [3, 7] | % Kill after 60 seconds ([3]; 60 seconds contact) | % Kill after 30 seconds [4, 7] | % Kill after 60 seconds ([4]; 60 seconds contact) | % Kill after 30 seconds ([5]; 30 seconds contact) | % Kill after 60 seconds ([5]; 60 seconds contact) | % Kill after 60 seconds ([6]; 60 seconds contact)
T@, T@: Number of surviving bacteria/ml after 30 seconds ([6]; 30 seconds contact, HOCL = 50 ppm)
<99.999%: % Kill after 30 seconds ([6]; 30 seconds contact, HOCL = 50 ppm (mark on the cfu cell beside))
